Source: patent US20230114627A1, “COMPOSITION COMPRISING A METAL ASCORBO-CAMPHORATE COMPOUND AND METHOD FOR PREVENTION AND/OR TREATMENT OF PAPILLOMAVIRUS INFECTIONS” (MGB PHARMA Inc., priority 2020, published 2023)

Tested on: HEC-1A cells
Assay: Cytokine/chemokine MultiPlex assay (BioPlex 200) of HEC-1A secretion
Assay type: cell-based
Conditions: 24 hours
Excerpt: In the model as provided in this example, a method to assess the pro-inflammatory character of antivirals intended to be applied as mucosal topicals was used.
Epithelial cells are capable of secreting a set of molecules called cytokines and chemokines, which are responsible for the recruitment and activation of immune cells at the site of secretion. This process can be deleterious in the context of sexual transmission of HIV-1 because the recruited cells are the preferred targets of the virus. […] A microbicide candidate should therefore not promote inflammation by activating the production of this type of molecule by the cells directly in contact with the substance (epithelial cells). These secretions can be deleterious in the context of sexual transmission of HIV-1 or HPV and other papillomaviruses because the recruited cells are the preferred targets of the virus. A microbicide candidate must thus not promote inflammation by activating the production of these types of molecules by the cells in contact with the substance (epithelial cells).
After 24 hours of incubation, a panel of 48 inflammation-related cytokines/chemokines is assayed by MultiPlex (BioPlex 200 BioRad) in the basal medium.

zinc tetra-ascorbo-camphorate [C14]
CTACK (0 μM): 4.29 pg/mL | Eotaxin (0 μM): 0.87 pg/mL | FGF (0 μM): 1.515 pg/mL | G-CSF (0 μM): 1.885 pg/mL | GM-CSF (0 μM): 7.005 pg/mL | GROα (0 μM): 2.75 pg/mL | HGF (0 μM): 3.63 pg/mL | IFN-α2 (0 μM): 4.08 pg/mL | IFN-γ (0 μM): 94.255 pg/mL | IL-1rα (0 μM): 18.105 pg/mL | IL-1α (0 μM): 0 pg/mL | IL-1β (0 μM): 0.335 pg/mL | IL-2 (0 μM): 0.25 pg/mL | IL-2rα (0 μM): 4.06 pg/mL | IL-3 (0 μM): 6.785 pg/mL | IL-4 (0 μM): 0.16 pg/mL | IL-5 (0 μM): 0 pg/mL | IL-6 (0 μM): 0.435 pg/mL | IL-7 (0 μM): 3.95 pg/mL | IL-8 (0 μM): 971.01 pg/mL | IL-9 (0 μM): 25.865 pg/mL | IL-10 (0 μM): 3.085 pg/mL | IL-12 (0 μM): 98.495 pg/mL | IL-12ρ40 (0 μM): 0 pg/mL | IL-13 (0 μM): 3.34 pg/mL | IL-15 (0 μM): 0 pg/mL | IL-16 (0 μM): 0 pg/mL | IL-17 (0 μM): 0 pg/mL | IL-18 (0 μM): 0 pg/mL | IP-10 (0 μM): 6.19 pg/mL | LIF (0 μM): 0 pg/mL | M-CSF (0 μM): 3.725 pg/mL | MCP-1 (0 μM): 7.26 pg/mL | MCP-3 (0 μM): 0 pg/mL | MIF (0 μM): 6.92 pg/mL | MIG (0 μM): 3.09 pg/mL | MIP-1α (0 μM): 2.25 pg/mL | MIP-1β (0 μM): 1.32 pg/mL | PDGF-β (0 μM): 1.235 pg/mL | RANTES (0 μM): 12.86 pg/mL | SCF (0 μM): 0 pg/mL | SCGF-β (0 μM): 242.36 pg/mL | SDF-1α (0 μM): 13.03 pg/mL | TNF-α (0 μM): 4.9 pg/mL | TNF-β (0 μM): 0 pg/mL | TRAIL (0 μM): 3.43 pg/mL | VEGF (0 μM): 1384.84 pg/mL | β-NGF (0 μM): 1.04 pg/mL | effect on production of the 48 cytokines/chemokines (1 μM to 500 μM): did not affect the production | CTACK (5 μM): 4.29 pg/mL | Eotaxin (5 μM): 0 pg/mL | FGF (5 μM): 1.415 pg/mL | G-CSF (5 μM): 1.99 pg/mL | GM-CSF (5 μM): 6.24 pg/mL | GROα (5 μM): 0 pg/mL | HGF (5 μM): 5.43 pg/mL | IFN-α2 (5 μM): 3.58 pg/mL | IFN-γ (5 μM): 95.43 pg/mL | IL-1rα (5 μM): 10.215 pg/mL | IL-1α (5 μM): 0 pg/mL | IL-1β (5 μM): 0.31 pg/mL | IL-2 (5 μM): 0.105 pg/mL | IL-2rα (5 μM): 4.29 pg/mL | IL-3 (5 μM): 6.785 pg/mL | IL-4 (5 μM): 0.05 pg/mL | IL-5 (5 μM): 0 pg/mL | IL-6 (5 μM): 0.34 pg/mL | IL-7 (5 μM): 3.38 pg/mL | IL-8 (5 μM): 941.46 pg/mL | IL-9 (5 μM): 25.535 pg/mL | IL-10 (5 μM): 3.395 pg/mL | IL-12 (5 μM): 98.855 pg/mL | IL-12ρ40 (5 μM): 0 pg/mL | IL-13 (5 μM): 4.8 pg/mL | IL-15 (5 μM): 0 pg/mL | IL-16 (5 μM): 0 pg/mL | IL-17 (5 μM): 0 pg/mL | IL-18 (5 μM): 0 pg/mL | IP-10 (5 μM): 4.855 pg/mL | LIF (5 μM): 0 pg/mL | M-CSF (5 μM): 4.7 pg/mL | MCP-1 (5 μM): 5.105 pg/mL | MCP-3 (5 μM): 0 pg/mL | MIF (5 μM): 2.735 pg/mL | MIG (5 μM): 3.76 pg/mL | MIP-1α (5 μM): 2.105 pg/mL | MIP-1β (5 μM): 1.09 pg/mL | PDGF-β (5 μM): 0.865 pg/mL | RANTES (5 μM): 12.27 pg/mL | SCF (5 μM): 0 pg/mL | SCGF-β (5 μM): 258.645 pg/mL | SDF-1α (5 μM): 13.03 pg/mL | TNF-α (5 μM): 5.5 pg/mL | TNF-β (5 μM): 0 pg/mL | TRAIL (5 μM): 4.21 pg/mL | VEGF (5 μM): 1240.71 pg/mL | β-NGF (5 μM): 0.95 pg/mL | CTACK (10 μM): 3.45 pg/mL | Eotaxin (10 μM): 0 pg/mL | FGF (10 μM): 1.53 pg/mL | G-CSF (10 μM): 1.99 pg/mL | GM-CSF (10 μM): 6.65 pg/mL | GROα (10 μM): 0 pg/mL | HGF (10 μM): 5.43 pg/mL | IFN-α2 (10 μM): 4.08 pg/mL | IFN-γ (10 μM): 76.375 pg/mL | IL-1rα (10 μM): 14.085 pg/mL | IL-1α (10 μM): 0 pg/mL | IL-1β (10 μM): 0.33 pg/mL | IL-2 (10 μM): 0.305 pg/mL | IL-2rα (10 μM): 3.825 pg/mL | IL-3 (10 μM): 6.14 pg/mL | IL-4 (10 μM): 0.235 pg/mL | IL-5 (10 μM): 0 pg/mL | IL-6 (10 μM): 0.575 pg/mL | IL-7 (10 μM): 3.665 pg/mL | IL-8 (10 μM): 1115.205 pg/mL | IL-9 (10 μM): 26.025 pg/mL | IL-10 (10 μM): 3.17 pg/mL | IL-12 (10 μM): 103.16 pg/mL
